Patent US20140107109A1, “AMINO-DIHYDROTHIAZINE AND AMINO-DIOXIDO DIHYDROTHIAZINE COMPOUNDS AS BETA-SECRETASE ANTAGONISTS AND METHODS OF USE” (Amgen Inc., priority 2012, published 2014)
Where two headings read alike, the source gives them in different places.

Key:
Cathepsin D (Cat D) = target: T1, Cathepsin D (Cat D) (Homo sapiens, UniProt P07339); experiment: In vitro enzymatic Cathepsin D (Cat D) FRET assay; format: biochemical; settings: read-out: CatD IC50
T1 construct: Recombinant Cat D was expressed in CHO cells; made in house; host or cells: CHO cells
Outline: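 FRET read-out: a fluorophore/quencher-labelled peptide substrate is cleaved by 9 nM Cat D (recombinant, CHO-expressed) following a one-hour preincubation with inhibitor dilutions in DMSO. Tris buffer added to neutralize pH ends the reaction before fluorescence measurement.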

[1] = system: Aβ40 in conditioned medium of cells stably expressing Amyloid Precursor Protein (APP); experiment: In vitro BACE cell-based assay (HEK cell assay), Aβ40 sandwich ELISA; settings: Homo sapiens, HEK293
Outline: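 Aβ40 in conditioned medium was quantified by time-resolved fluorescence sandwich ELISA (pAb40 capture 3 h at 4 °C, biotin-6E10 detection 2 h at 4 °C) after 24 h compound exposure of APP-expressing cells. Doses spanned 10 points from 100 μM or 10 μM top, 0.1% DMSO; IC50 was derived from percent of control.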

[2] = target: Beta Secretase enzyme (BACE1) (Homo sapiens, UniProt P56817); experiment: In vitro enzymatic BACE FRET assay; format: biochemical; settings: read-out: BACE1 FRET assay IC50
Outline: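 Readout: dequenched fluorescence (ex 488 nm/[…]) after neutralizing with Tris buffer. Reactions, begun by adding 50 nM quenched peptide substrate spanning the BACE cleavage site, were incubated one hour at pH 4.2 in 0.05 M acetate with 100 uM genapol and 10% final DMSO.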

T1 sequence (P07339 65-412, species assumed): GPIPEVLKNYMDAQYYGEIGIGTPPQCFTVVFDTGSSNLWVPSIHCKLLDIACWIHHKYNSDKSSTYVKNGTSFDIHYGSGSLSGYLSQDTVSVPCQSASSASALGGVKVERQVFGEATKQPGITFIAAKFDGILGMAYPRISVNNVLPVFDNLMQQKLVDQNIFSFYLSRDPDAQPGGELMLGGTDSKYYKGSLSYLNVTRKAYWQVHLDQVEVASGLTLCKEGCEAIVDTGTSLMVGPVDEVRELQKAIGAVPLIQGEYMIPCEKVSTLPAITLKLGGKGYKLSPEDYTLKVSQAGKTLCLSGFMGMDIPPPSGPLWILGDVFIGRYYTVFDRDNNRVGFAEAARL
Chain of Beta Secretase enzyme (BACE1) (P56817 46-501): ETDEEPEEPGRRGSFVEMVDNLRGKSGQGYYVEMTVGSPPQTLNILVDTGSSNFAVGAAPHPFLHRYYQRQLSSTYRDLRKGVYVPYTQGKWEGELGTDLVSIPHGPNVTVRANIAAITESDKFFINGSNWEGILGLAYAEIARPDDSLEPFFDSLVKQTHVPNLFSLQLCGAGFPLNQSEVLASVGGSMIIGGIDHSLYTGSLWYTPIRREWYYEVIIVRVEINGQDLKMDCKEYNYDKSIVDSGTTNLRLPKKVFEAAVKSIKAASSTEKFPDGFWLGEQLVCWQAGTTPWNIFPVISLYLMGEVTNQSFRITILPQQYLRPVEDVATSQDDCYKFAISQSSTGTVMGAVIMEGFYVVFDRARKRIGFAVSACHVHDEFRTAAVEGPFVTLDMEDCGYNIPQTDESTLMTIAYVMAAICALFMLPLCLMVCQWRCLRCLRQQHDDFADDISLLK

Row | Structure (SMILES) | IC50 (Cathepsin D (Cat D)) [µM] | IC50 [1] [nM] | IC50 [2] [nM] | IC50 ([1]; average IC50, HEK cell assay) [nM] | IC50 ([2]; average IC50, enzyme assay) [nM] | IC50 ([1]; average IC50, cell assay) [nM]
1 | Cc1cc(OC(F)F)cnc1C(=O)Nc1ccc(F)c([C@@]2(C)N=C(N)C3(CCC3)S(=O)(=O)[C@@H]2F)c1 [Example 132, N-(3-((6S,7R)-9-amino-6-fluoro-7-methyl-5,5-dioxido-5-thia-8-azaspiro[3.5]non-8-en-7-yl)-4-fluorophenyl)-5-(difluoromethoxy)-3-methylpicolinamide] | 61.8 | 5.8 | 2.97 | – | – | –
2 | Cc1cc(C(F)F)cnc1C(=O)Nc1ccc(F)c([C@@]2(C)N=C(N)C3(CCC3)S(=O)(=O)[C@@H]2F)c1 [Example 136, N-(3-((6S,7R)-9-amino-6-fluoro-7-methyl-5,5-dioxido-5-thia-8-azaspiro[3.5]non-8-en-7-yl)-4-fluorophenyl)-5-(difluoromethyl)-3-methylpicolinamide] | 236 | 4.9 | 2.1 | – | – | –
3 | COc1cnc(C(=O)Nc2ccc(F)c([C@@]3(C)N=C(N)C4(CCC4)S(=O)(=O)[C@@H]3F)c2)c(C)c1 [Example 137, N-(3-((6S,7R)-9-amino-6-fluoro-7-methyl-5,5-dioxido-5-thia-8-azaspiro[3.5]non-8-en-7-yl)-4-fluorophenyl)-5-methoxy-3-methylpicolinamide] | 81.3 | 6.4 | 3.63 | – | – | –
4 | COc1cc(Cl)cnc1C(=O)Nc1ccc(F)c([C@@]2(C)N=C(N)C3(CCC3)S(=O)(=O)[C@@H]2F)c1 [Example 139, N-(3-((6S,7R)-9-amino-6-fluoro-7-methyl-5,5-dioxido-5-thia-8-azaspiro[3.5]non-8-en-7-yl)-4-fluorophenyl)-5-chloro-3-methoxypicolinamide] | 408 | 11.8 | 3.8 | – | – | –
5 | C[C@]1(c2cc(NC(=O)c3cnc(C(F)F)cn3)ccc2F)N=C(N)C2(CCC2)S(=O)(=O)[C@@H]1F [Example 140, N-(3-((6S,7R)-9-amino-6-fluoro-7-methyl-5,5-dioxido-5-thia-8-azaspiro[3.5]non-8-en-7-yl)-4-fluorophenyl)-5-(difluoromethyl)pyrazine-2-carboxamide] | > 400 | 14.6 | 8.8 | – | – | –
6 | Cc1cc(OC(F)F)cnc1C(=O)Nc1ccc(F)c([C@]2(C)CS(=O)(=O)C(C)(C)C(N)=N2)c1 [Example 144, (R)—N-(3-(5-amino-3,6,6-trimethyl-1,1-dioxido-3,6-dihydro-2H-1,4-thiazin-3-yl)-4-fluorophenyl)-5-(difluoromethoxy)-3-methylpicolinamide] | 96.7 | 1.6 | 0.6 | – | – | –
7 | Cc1c(CNc2cc([C@]3(C)CS(=O)(=O)C(C)(C)C(N)=N3)c(F)cn2)nc2ccc(Cl)cn12 [Example 145, (R)-5-amino-3-(2-(((6-chloro-3-methylimidazo[1,2-a]pyridin-2-yl)methyl)amino)-5-fluoropyridin-4-yl)-3,6,6-trimethyl-3,6-dihydro-2H-1,4-thiazine-1,1-dioxide] | 102 | – | – | 412 | 440 | –
8 | C[C@@]1(c2cc(Br)ncc2F)CS(=O)(=O)C2(CCC2)C(N)=N1 [Example 147, (R)-9-amino-7-(2-bromo-5-fluoropyridin-4-yl)-7-methyl-5-thia-8-azaspiro[3.5]non-8-ene 5,5-dioxide] | 43.5 | – | – | – | 17000 | > 15600
9 | Cc1cc(OC(F)F)cnc1C(=O)Nc1ccc(F)c([C@]2(CF)CS(=O)(=O)C(C)(C)C(N)=N2)c1 [Example 148, (S)—N-(3-(5-amino-3-(fluoromethyl)-6,6-dimethyl-1,1-dioxido-3,6-dihydro-2H-1,4-thiazin-3-yl)-4-fluorophenyl)-5-(difluoromethoxy)-3-methylpicolinamide] | 213 | 9.1 | 1.63 | – | – | –
10 | CC1(C)C(N)=N[C@](C)(c2cc(C(=O)Nc3ccc(Cl)cc3)ccc2F)CS1(=O)=O [Example 153, (R)-3-(5-amino-3,6,6-trimethyl-1,1-dioxido-3,6-dihydro-2H-1,4-thiazin-3-yl)-N-(4-chlorophenyl)-4-fluorobenzamide] | 237 | – | – | – | 4680 | 3210
11 | C[C@@]1(c2cccc(Br)c2)CS(=O)(=O)C2(CCC2)C(N)=N1 [Example 154, (R)-9-amino-7-(3-bromophenyl)-7-methyl-5-thia-8-azaspiro[3.5]non-8-ene 5,5-dioxide] | 31.2 | – | – | – | 6060 | 2390
12 | CC1(C)C(N)=N[C@](CF)(c2cc(NC(=O)c3cnc(OCC4CC4)cn3)ccc2F)CS1(=O)=O [Example 156, (S)—N-(3-(5-amino-3-(fluoromethyl)-6,6-dimethyl-1,1-dioxido-3,6-dihydro-2H-1,4-thiazin-3-yl)-4-fluorophenyl)-5-(cyclopropylmethoxy)pyrazine-2-carboxamide] | 835 | – | – | – | 0.5 | 4.9

More lines, now with the values ahead:

Row | IC50 (Cathepsin D (Cat D)) [µM] | IC50 [1] [nM] | IC50 [2] [nM] | IC50 ([1]; average IC50, HEK cell assay) [nM] | IC50 ([2]; average IC50, enzyme assay) [nM] | IC50 ([1]; average IC50, cell assay) [nM] | Structure (SMILES)
13 | 855 | – | – | – | 2.71 | 65.1 | Cc1cc(OCCF)cnc1C(=O)Nc1ccc(F)c([C@]2(CF)CS(=O)(=O)C(C)(C)C(N)=N2)c1 [Example 149, (S)—N-(3-(5-amino-3-(fluoromethyl)-6,6-dimethyl-1,1-dioxido-3,6-dihydro-2H-1,4-thiazin-3-yl)-4-fluorophenyl)-5-(2-fluoroethoxy)-3-methylpicolinamide]
14 | 622 | – | – | – | 44.5 | 528 | Cc1cc(OC2COC2)cnc1C(=O)Nc1ccc(F)c([C@]2(CF)CS(=O)(=O)C(C)(C)C(N)=N2)c1 [Example 150, (S)—N-(3-(5-amino-3-(fluoromethyl)-6,6-dimethyl-1,1-dioxido-3,6-dihydro-2H-1,4-thiazin-3-yl)-4-fluorophenyl)-3-methyl-5-(oxetan-3-yloxy)picolinamide]
15 | 232 | 100 | 1.7 | – | – | – | Cc1cc(OCC2CCC2)cnc1C(=O)Nc1ccc(F)c([C@]2(CF)CS(=O)(=O)C(C)(C)C(N)=N2)c1 [Example 151, (S)—N-(3-(5-amino-3-(fluoromethyl)-6,6-dimethyl-1,1-dioxido-3,6-dihydro-2H-1,4-thiazin-3-yl)-4-fluorophenyl)-5-(cyclobutylmethoxy)-3-methylpicolinamide]
16 | 1460 | – | – | – | 2940 | 302 | Cc1c(CNc2ccc(F)c([C@]3(C)CS(=O)(=O)C(C)(C)C(N)=N3)c2)nc2ccc(Cl)cn12 [Example 152, (R)-5-amino-3-(5-(((6-chloro-3-methylimidazo[1,2-a]pyridin-2-yl)methyl)amino)-2-fluorophenyl)-3,6,6-trimethyl-3,6-dihydro-2H-1,4-thiazine 1,1-dioxide]
17 | 470 | – | – | – | 4.3 | 35.1 | COc1cnc(C(=O)Nc2ccc(F)c([C@]3(CF)CS(=O)(=O)C(C)(C)C(N)=N3)c2)c(OC)n1 [Example 155, (S)—N-(3-(5-amino-3-(fluoromethyl)-6,6-dimethyl-1,1-dioxido-3,6-dihydro-2H-1,4-thiazin-3-yl)-4-fluorophenyl)-3,5-dimethoxypyrazine-2-carboxamide]
18 | > 14.8 | – | – | – | 0.56 | 27.1 | CC1(C)C(N)=N[C@](CF)(c2cc(Nc3ncc(F)c4cc(C#N)cnc34)ccc2F)CS1(=O)=O [Example 157, (S)-8-((3-(5-amino-3-(fluoromethyl)-6,6-dimethyl-1,1-dioxido-3,6-dihydro-2H-1,4-thiazin-3-yl)-4-fluorophenyl)amino)-5-fluoro-1,7-naphthyridine-3-carbonitrile]
